Test results published in patent publication US20230093099A1, “COMPOUNDS AND METHODS OF TREATING CANCERS” (CULLGEN (SHANGHAI), INC., priority 2019, published 2023).

Test system: RS4;11 cells
Assay: Cell viability assay (CellTiter-Glo) in RS4;11 cells
Type: cell-based
Conditions: Homo sapiens, 72 h; RS4;11 cells; cell viability, 3 days, CellTiter-Glo; read-out: IC50
Protocol: Specific exemplary heterobifunctional compounds were first characterized using cell viability assays. RS4;11 ALL cells were treated with bifunctional degraders for three days. The IC50 values ranged from 2 nM to over 10 uM.
MV4;11, RS4;11, Kasumi-1, HEL and other cells were treated with NVP-BSK805, TG101209 or selected degraders for 3 days at indicated concentrations following a 3-fold serial dilution.
HEL, RS4;11, MV4;11, Kasumi-1 and other cells were cultured at 37° C. with 5% CO2 in RPMI 1640 or DMEM Medium supplemented with 10% fetal bovine serum. Cells were authenticated using the short tandem repeat (STR) assays. Mycoplasma test results were negative.
Cells were seeded at a density of 5000 cells per well in 96-well assay plates and treated with test compounds following a 8-point or 12-point 3-fold serial dilution. Three days later, cell viability was determined using the CellTiter-Glo assay kit according to the manufacturer's instructions. The dose-response curves were determined and IC50 values were calculated using the GraphPad Prism software following a nonlinear regression (least squares fit) method.

| IC50 | SMILES |
| --- | --- |
| 128 nM | O=C(CN1CCC(n2cc(-c3cnc4cccc(-c5cc(F)c(CN6CCOCC6)c(F)c5)c4n3)cn2)CC1)NCCCNc1ccc2c(c1)C(=O)N(C1CCC(=O)NC1=O)C2=O (stereo not drawn) [JA-175, 2-(4-(4-(8-(3,5-Difluoro-4-(morpholinomethyl)phenyl)quinoxalin-2-yl)-1H-pyrazol-1-yl)piperidin-1-yl)-N-(3-((2-(2,6-dioxopiperidin-3-yl)-1,3-dioxoisoindolin-5-yl)amino)propyl)acetamide] |
| > 10000 nM | CS(=O)(=O)c1ccc(-c2cccc3nc(Nc4ccc(N5CCN(CC(=O)NCCOCCNc6ccc7c(c6)C(=O)N(C6CCC(=O)NC6=O)C7=O)CC5)cc4)nn23)cc1 (stereo not drawn) [JA-212, N-(2-(2-((2-(2,6-Dioxopiperidin-3-yl)-1,3-dioxoisoindolin-5-yl)amino)ethoxy)ethyl)-2-(4-(4-((5-(4-(methylsulfonyl)phenyl)-[1,2,4]triazolo[1,5-a]pyridin-2-yl)amino)phenyl)piperazin-1-yl)acetamide] |
| 337 nM | CS(=O)(=O)c1ccc(-c2cccc3nc(Nc4ccc(N5CCN(C(=O)CCCCCCc6ccc7c(c6)CN(C6CCC(=O)NC6=O)C7=O)CC5)cc4)nn23)cc1 (stereo not drawn) [JA-251, 3-(5-(7-(4-(4-((5-(4-(Methylsulfonyl)phenyl)-[1,2,4]triazolo[1,5-a]pyridin-2-yl)amino)phenyl)piperazin-1-yl)-7-oxoheptyl)-1-oxoisoindolin-2-yl)piperidine-2,6-dione] |
| > 10000 nM | CS(=O)(=O)c1ccc(-c2cccc3nc(Nc4ccc(N5CCN(C(=O)CCCCCNc6ccc7c(c6)C(=O)N(C6CCC(=O)NC6=O)C7)CC5)cc4)nn23)cc1 (stereo not drawn) [JA-276, 3-(6-((6-(4-(4-((5-(4-(Methylsulfonyl)phenyl)-[1,2,4]triazolo[1,5-a]pyridin-2-yl)amino)phenyl)piperazin-1-yl)-6-oxohexyl)amino)-1-oxoisoindolin-2-yl)piperidine-2,6-dione] |
| 66 nM | O=C1CCC(N2Cc3cc(NCCCCCC(=O)N4CCC(n5cc(-c6cnc7cccc(-c8cc(F)c(CN9CCOCC9)c(F)c8)c7n6)cn5)CC4)ccc3C2=O)C(=O)N1 (stereo not drawn) [JA-273, 3-(5-((6-(4-(4-(8-(3,5-difluoro-4-(morpholinomethyl)phenyl)quinoxalin-2-yl)-1H-pyrazol-1-yl)piperidin-1-yl)-6-oxohexyl)amino)-1-oxoisoindolin-2-yl)piperidine-2,6-dione] |
| > 500 nM | Cn1c(=O)n(C2CCC(=O)NC2=O)c2cccc(NCCCCCC(=O)N3CCC(n4cc(-c5cnc6cccc(-c7cc(F)c(CN8CCOCC8)c(F)c7)c6n5)cn4)CC3)c21 (stereo not drawn) [JA-282, 3-(4-((6-(4-(4-(8-(3,5-Difluoro-4-(morpholinomethyl)phenyl)quinoxalin-2-yl)-1H-pyrazol-1-yl)piperidin-1-yl)-6-oxohexyl)amino)-3-methyl-2-oxo-2,3-dihydro-1H-benzo[d]imidazol-1-yl)piperidine-2,6-dione] |
| > 500 nM | Cn1c(=O)n(C2CCC(=O)NC2=O)c2ccc(NCCCCC(=O)N3CCN(c4ccc(Nc5nc6cccc(-c7ccc(S(C)(=O)=O)cc7)n6n5)cc4)CC3)cc21 (stereo not drawn) [JA-291, 3-(3-Methyl-5-((5-(4-(4-((5-(4-(methylsulfonyl)phenyl)-[1,2,4]triazolo[1,5-a]pyridin-2-yl)amino)phenyl)piperazin-1-yl)-5-oxopentyl)amino)-2-oxo-2,3-dihydro-1H-benzo[d]imidazol-1-yl)piperidine-2,6-dione] |
| 32.8 nM | CS(=O)(=O)c1ccc(-c2cccc3nc(Nc4ccc(N5CCN(C(=O)CCCCCOc6ccc7c(c6)CN(C6CCC(=O)NC6=O)C7=O)CC5)cc4)nn23)cc1 (stereo not drawn) [JA-261, 3-(5-((6-(4-(4-((5-(4-(methylsulfonyl)phenyl)-[1,2,4]triazolo[1,5-a]pyridin-2-yl)amino)phenyl)piperazin-1-yl)-6-oxohexyl)oxy)-1-oxoisoindolin-2-yl)piperidine-2,6-dione] |

The remaining lines, values behind:

| SMILES | IC50 |
| --- | --- |
| Cc1cnc(Nc2ccc(N3CCN(C(=O)CNc4cccc5c4C(=O)N(C4CCC(=O)NC4=O)C5=O)CC3)cc2)nc1Nc1cccc(S(=O)(=O)NC(C)(C)C)c1 (stereo not drawn) [JA-006, N-(tert-Butyl)-3-((2-((4-(4-((2-(2,6-dioxopiperidin-3-yl)-1,3-dioxoisoindolin-4-yl)glycyl)piperazin-1-yl)phenyl)amino)-5-methylpyrimidin-4-yl)amino)benzenesulfonamide] | > 10000 nM |
| CS(=O)(=O)c1ccc(-c2cccc3nc(Nc4ccc(N5CCN(C(=O)CCOCCOCCOCCOCCOCCNc6cccc7c6C(=O)N(C6CCC(=O)NC6=O)C7=O)CC5)cc4)nn23)cc1 (stereo not drawn) [JA-077, 2-(2,6-Dioxo-piperidin-3-yl)-4-(2-{2-[2-(2-{2-[3-(4-{4-[5-(4-methanesulfonyl-phenyl)-[1,2,4]triazolo[1,5-a]pyridin-2-ylamino]-phenyl}-piperazin-1-yl)-3-oxo-propoxy]-ethoxy}-ethoxy)-ethoxy]-ethoxy}-ethylamino)-isoindole-1,3-dione] | 406 nM |
| O=C1CCC(N2C(=O)c3cccc(NCCCC(=O)N4CCC(n5cc(-c6cnc7cccc(-c8cc(F)c(CN9CCOCC9)c(F)c8)c7n6)cn5)CC4)c3C2=O)C(=O)N1 (stereo not drawn) [JA-005, 4-[[4-[4-[4-[8-[3,5-Difluoro-4-(morpholinomethyl)phenyl]quinoxalin-2-yl]pyrazol-1-yl]-1-piperidyl]-4-oxo-butyl]amino]-2-(2,6-dioxo-3-piperidyl)isoindoline-1,3-dione] | 510 nM |
| Cc1cnc(Nc2ccc(N3CCN(CC(=O)NCCCCCCCNc4cccc5c4C(=O)N(C4CCC(=O)NC4=O)C5=O)CC3)cc2)nc1Nc1cccc(S(=O)(=O)NC(C)(C)C)c1 (stereo not drawn) [JA-095, 2-(4-(4-((4-((3-(N-(tert-Butyl)sulfamoyl)phenyl)amino)-5-methylpyrimidin-2-yl)amino)phenyl)piperazin-1-yl)-N-(7-((2-(2,6-dioxopiperidin-3-yl)-1,3-dioxoisoindolin-4-yl)amino)heptyl)acetamide] | 122 nM |
| Cc1ncsc1-c1ccc(CNC(=O)[C@@H]2C[C@@H](O)CN2C(=O)[C@@H](NC(=O)CCCCCCCC(=O)N2CCC(n3cc(-c4cnc5cccc(-c6cc(F)c(CN7CCOCC7)c(F)c6)c5n4)cn3)CC2)C(C)(C)C)cc1 [JA-051, (2S,4R)-1-[(2S)-2-[[9-[4-[4-[8-[3,5-Difluoro-4-(morpholinomethyl)phenyl]quinoxalin-2-yl]pyrazol-1-yl]-1-piperidyl]-9-oxo-nonanoyl]amino]-3,3-dimethyl-butanoyl]-4-hydroxy-N-[[4-(4-methylthiazol-5-yl)phenyl]methyl]pyrrolidine-2-carboxamide] | 4640 nM |
| Cc1ncsc1-c1ccc(CNC(=O)[C@@H]2C[C@@H](O)CN2C(=O)[C@@H](NC(=O)COCCOCCOCCOCCOCC(=O)N2CCN(c3ccc(Nc4nc5cccc(-c6ccc(S(C)(=O)=O)cc6)n5n4)cc3)CC2)C(C)(C)C)cc1 [JA-083, (2S,4R)-1-((S)-2-(tert-Butyl)-20-(4-(4-((5-(4-(methylsulfonyl)phenyl)-[1,2,4]triazolo[1,5-a]pyridin-2-yl)amino)phenyl)piperazin-1-yl)-4,20-dioxo-6,9,12,15,18-pentaoxa-3-azaicosanoyl)-4-hydroxy-N-(4-(4-methylthiazol-5-yl)benzyl)pyrrolidine-2-carboxamide] | > 10000 nM |
| Cc1cnc(Nc2ccc(N3CCN(CC(=O)NCCCNc4cccc5c4C(=O)N(C4CCC(=O)NC4=O)C5=O)CC3)cc2)nc1Nc1cccc(S(=O)(=O)NC(C)(C)C)c1 (stereo not drawn) [JA-091, 2-(4-(4-((4-((3-(N-(tert-Butyl)sulfamoyl)phenyl)amino)-5-methylpyrimidin-2-yl)amino)phenyl)piperazin-1-yl)-N-(3-((2-(2,6-dioxopiperidin-3-yl)-1,3-dioxoisoindolin-4-yl)amino)propyl)acetamide] | 2980 nM |
| O=C1CCC(N2C(=O)c3cccc(NCCC(=O)N4CCC(n5cc(-c6cnc7cccc(-c8cc(F)c(CN9CCOCC9)c(F)c8)c7n6)cn5)CC4)c3C2=O)C(=O)N1 (stereo not drawn) [JA-004, 4-[[3-[4-[4-[8-[3,5-Difluoro-4-(morpholinomethyl)phenyl]quinoxalin-2-yl]pyrazol-1-yl]-1-piperidyl]-3-oxo-propyl]amino]-2-(2,6-dioxo-3-piperidyl)isoindoline-1,3-dione] | 3350 nM |
| Cc1ncsc1-c1ccc(CNC(=O)[C@@H]2C[C@@H](O)CN2C(=O)[C@@H](NC(=O)CCCCNC(=O)CN2CCC(n3cc(-c4cnc5cccc(-c6cc(F)c(CN7CCOCC7)c(F)c6)c5n4)cn3)CC2)C(C)(C)C)cc1 [JA-168, (2S,4R)-1-((S)-2-(5-(2-(4-(4-(8-(3,5-Difluoro-4-(morpholinomethyl)phenyl)quinoxalin-2-yl)-1H-pyrazol-1-yl)piperidin-1-yl)acetamido)pentanamido)-3,3-dimethylbutanoyl)-4-hydroxy-N-(4-(4-methylthiazol-5-yl)benzyl)pyrrolidine-2-carboxamide] | > 10000 nM |
| Cc1ncsc1-c1ccc(CNC(=O)[C@@H]2C[C@@H](O)CN2C(=O)[C@@H](NC(=O)CCCCCCCNC(=O)CN2CCC(n3cc(-c4cnc5cccc(-c6cc(F)c(CN7CCOCC7)c(F)c6)c5n4)cn3)CC2)C(C)(C)C)cc1 [JA-156, (2S,4R)-1-((S)-2-(8-(2-(4-(4-(8-(3,5-Difluoro-4-(morpholinomethyl)phenyl)quinoxalin-2-yl)-1H-pyrazol-1-yl)piperidin-1-yl)acetamido)octanamido)-3,3-dimethylbutanoyl)-4-hydroxy-N-(4-(4-methylthiazol-5-yl)benzyl)pyrrolidine-2-carboxamide] | 3660 nM |
